One data set has as its system NCI‐H2122 tumor. Kind of data set: NCI-H2122 subcutaneous transplantation tumor model. It counts as in vivo, BALB/c‐nu mouse. The note with it: i.p., q2d. On the procedure:
NCI‐H2122 cells in the logarithmic growth phase were collected by mixing serum‐free RMPI‐1640 medium and Matrigel matrix gel, and injected subcutaneously into the right axilla of thymus‐less male BALB/c‐nu nude mice. Tumor volume was calculated according to V = ab^2/2 (where a and b are the long and short diameters of the tumor, respectively), and body weight was recorded every 3 days. When the tumor volume reached 100 mm^3, the mice were randomly divided into six groups (ten mice in each group): Control group (i.p, q2d), SHP099 (20 mg kg^−1, i.p, q2d) group, GDC‐0152 (20 mg kg^−1, i.p, q2d) group, SHP099 (20 mg kg^−1, i.p, q2d) + GDC‐ 0152 (20 mg kg^−1, i.p, q2d) co‐administration group, embelin (20 mg kg^−1, i.p, q2d) medium‐dose group and embelin (30 mg kg^−1, i.p, q2d) high‐dose group. When the tumor volume reached 1000 mm^3, all experimental mice were sacrificed, and tumor tissues and major organs, such as the heart, liver, spleen, lungs, and kidneys, were collected for further study.

In the next data set the target is T1, ΔSHP2 (Homo sapiens, UniProt Q06124).
T1 construct: His‐ΔSHP2, encompassing the peptide from amino acids 205–593 retaining PTP activity; His; made in house; host or cells: E. coli
T1 sequence (Q06124 205-593): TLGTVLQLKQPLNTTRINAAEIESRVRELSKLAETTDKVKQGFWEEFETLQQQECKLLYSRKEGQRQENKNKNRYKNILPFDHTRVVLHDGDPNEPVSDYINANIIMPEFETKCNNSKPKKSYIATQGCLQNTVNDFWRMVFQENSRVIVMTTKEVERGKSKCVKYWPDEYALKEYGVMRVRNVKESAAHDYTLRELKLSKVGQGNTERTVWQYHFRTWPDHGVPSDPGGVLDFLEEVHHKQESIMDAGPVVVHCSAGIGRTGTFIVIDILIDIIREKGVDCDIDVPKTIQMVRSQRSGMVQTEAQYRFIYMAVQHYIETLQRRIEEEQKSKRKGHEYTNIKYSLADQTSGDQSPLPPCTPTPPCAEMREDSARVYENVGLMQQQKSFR
Nature of the data set: PTPs activity assay (DiFMUP). The class given is biochemical. On the procedure: (§1) Catalytic activity screening methods for PTPs using candidate compounds were performed as previously described.^[ [77] ^] In brief, soluble fusion PTP proteins, His‐ΔSHP2, encompassing the peptide from amino acids 205–593 retaining PTP activity, His‐ΔSHP2^K325A, His‐ΔSHP1, encompassing the peptide from amino acids 202–595 retaining PTP activity, His‐PTP1B, His‐HePTP, His‐VHR, and His‐TCPTP were cloned, expressed, and purified in E. coli. After determining protein concentration using bicinchoninic acid (BCA) assay kit, 1 µg fusion protein, 10 µM library compound were added in 100 µL reaction mixture (55 mM 4‐(2‐hydroxyethyl)‐1‐piperazineethanesulfonic acid [HEPES], 100 mM sodium chloride [NaCl], 0.5 mM ethylenediaminetetraacetic acid [EDTA], 1 mM dithiothreitol [DTT], 0.01% Triton X‐100, 0.002% bovine serum albumin [BSA], and 0.1% dimethyl sulfoxide [DMSO]) and incubated at 37 °C for 30 min in the dark, with Na3VO4 as positive control. The detection substrate DiFMUP (50 µM) was promptly added to each reaction and functioned at 37 °C for 30 min in the dark. The fluorescence intensity was then measured using Multimode Plate Reader (λa = 358 nm, λe = 455 nm, PerkinElmer, USA).

The target of the next data set is T2, VHR (Homo sapiens, UniProt P51452).
T2 construct: His; made in house; host or cells: E. coli
T2 sequence (P51452 whole entry): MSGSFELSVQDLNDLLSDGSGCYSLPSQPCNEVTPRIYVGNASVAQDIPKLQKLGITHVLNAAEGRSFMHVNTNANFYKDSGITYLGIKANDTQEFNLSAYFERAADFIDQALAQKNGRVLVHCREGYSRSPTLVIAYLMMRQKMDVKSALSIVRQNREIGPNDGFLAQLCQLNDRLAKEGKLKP
Kind of data set: PTPs activity assay (DiFMUP). The class given is biochemical. On the procedure:
as §1

Another data set concerns the target T3, PTP1B (Homo sapiens, UniProt P18031).
T3 construct: His; made in house; host or cells: E. coli
T3 sequence (P18031 1-435): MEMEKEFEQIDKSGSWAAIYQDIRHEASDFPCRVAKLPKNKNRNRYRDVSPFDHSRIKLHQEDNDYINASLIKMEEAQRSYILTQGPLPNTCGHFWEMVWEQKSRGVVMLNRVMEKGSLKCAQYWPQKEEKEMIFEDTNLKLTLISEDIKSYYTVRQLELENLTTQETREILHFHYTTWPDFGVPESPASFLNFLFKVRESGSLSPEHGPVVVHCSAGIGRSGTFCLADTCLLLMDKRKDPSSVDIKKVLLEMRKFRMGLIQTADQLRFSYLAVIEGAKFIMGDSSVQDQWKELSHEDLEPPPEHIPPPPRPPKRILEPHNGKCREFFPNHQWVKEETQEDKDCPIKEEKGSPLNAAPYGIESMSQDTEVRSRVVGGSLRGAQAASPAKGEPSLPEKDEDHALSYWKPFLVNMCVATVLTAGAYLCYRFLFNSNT
Nature of the data set: PTPs activity assay (DiFMUP). The class given is biochemical. The conditions noted are these: read-out: IC50 of PTPs PTP1B. On the procedure: as §1

A further data set concerns the target T4, HePTP (Homo sapiens, UniProt P35236).
T4 construct: His; made in house; host or cells: E. coli
T4 sequence (P35236 1-360): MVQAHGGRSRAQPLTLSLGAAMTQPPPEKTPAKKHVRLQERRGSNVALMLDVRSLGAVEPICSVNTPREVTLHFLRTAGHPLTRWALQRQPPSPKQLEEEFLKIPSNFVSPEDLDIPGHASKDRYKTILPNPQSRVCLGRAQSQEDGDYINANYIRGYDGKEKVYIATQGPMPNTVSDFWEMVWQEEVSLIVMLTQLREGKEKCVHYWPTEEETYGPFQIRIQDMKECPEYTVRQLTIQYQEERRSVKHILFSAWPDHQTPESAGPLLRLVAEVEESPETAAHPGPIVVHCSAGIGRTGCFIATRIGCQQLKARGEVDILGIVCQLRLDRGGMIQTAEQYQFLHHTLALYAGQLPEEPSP
Kind of data set: PTPs activity assay (DiFMUP). It counts as biochemical. The method, then:
as §1

For the next data set, the target named is T5, ΔSHP1 (Homo sapiens, UniProt P29350).
T5 construct: His‐ΔSHP1, encompassing the peptide from amino acids 202–595 retaining PTP activity; His; made in house; host or cells: E. coli
T5 sequence (P29350 202-595, stated change not applied): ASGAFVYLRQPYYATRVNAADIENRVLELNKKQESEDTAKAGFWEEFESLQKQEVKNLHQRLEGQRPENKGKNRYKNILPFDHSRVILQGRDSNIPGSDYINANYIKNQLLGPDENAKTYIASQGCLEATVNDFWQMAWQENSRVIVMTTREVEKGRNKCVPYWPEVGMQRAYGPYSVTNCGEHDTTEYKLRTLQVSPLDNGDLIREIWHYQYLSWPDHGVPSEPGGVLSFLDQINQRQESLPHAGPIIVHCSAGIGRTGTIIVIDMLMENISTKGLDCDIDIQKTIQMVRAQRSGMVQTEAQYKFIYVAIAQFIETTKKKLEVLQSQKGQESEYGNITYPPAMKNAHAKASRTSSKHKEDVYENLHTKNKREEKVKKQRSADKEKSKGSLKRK
Kind of data set: PTPs activity assay (DiFMUP). The class given is biochemical. On the procedure:
as §1

SMILES strings stand for the structures. Where only a bound is given, the exact number is not on record here.

In the case of `CC1(N)CCN(c2cnc(-c3cccc(Cl)c3Cl)c(N)n2)CC1` [SHP099], in the data set on NCI‐H2122 tumor, the “effect on body weight of the mice” value is given as “little or no effect on the body weight”; the “effect on weights of hearts, livers, lungs, and kidneys and structure of hearts and kidneys” value is “no significant effect”.
On to `O=C1Nc2ccc(I)cc2/C1=C/c1cc(Br)c(O)c(Br)c1` [S2872, GW5074], for which the IC50 – broadly, the point on the concentration scale where inhibition reaches its midpoint – against ΔSHP2 was determined as 33.8 µM; against VHR, 131 µM; on PTP1B it was 110 µM; on HePTP, 472 µM; on ΔSHP1 it was 246 µM.
For the compound `CCCCCCCCCCCC1=C(O)C(=O)C=C(O)C1=O` [Embelin], the “effect on body weight of the mice” value with NCI‐H2122 tumor is recorded as “little or no effect on the body weight”. In addition, the “effect on weights of hearts, livers, lungs, and kidneys and structure of hearts and kidneys” value with NCI‐H2122 tumor was “no significant effect”. Further, in the data set with NCI‐H2122 tumor (embelin 20 and 30 mg kg^−1, GDC‐0152 20 mg kg^−1 + SHP099 20 mg kg^−1), the “effect on tumor growth in vivo” value was “significantly inhibited the tumor growth rate”. Also, the IC50 on ΔSHP2 is 10.5 µM; on VHR it was over 200 µM; at PTP1B, over 200 µM; on HePTP, over 200 µM; against ΔSHP1, over 200 µM.
